Measured values: US20070048247A1, “Deodorizing tablets” (Kimberly-Clark Worldwide, Inc., priority 2005, published 2007)

How the values were obtained:
[1] = Example 2 urine odor panel ranking (1.6 millimolar); set-up: species or system Human; details: 1.6 millimolar in urine, after 24 hours
Source text: The powders chosen for this example were powders of Acid Blue 25, Acid Blue 45, Acid Blue 129, FD&C Blue No.1 (a triarylmethane), Acid Green 27, Acid Green 41, and Mordant Violet 5 (Alizarin Violet 3R) (commercially available from Sigma-Aldrich Chemical Co., Inc. of St. Louis, Mo.), as well as D&C Green No. 5 (commercially available from Noveon Hilton Davis, Inc. of Cincinnati, Ohio). Human female urine was initially collected and pooled by a nurse on staff at Kimberly-Clark Corporation. […] Powders of the aforementioned quinone compounds were weighed and placed into the mason jars containing 50 milliliters of urine so that the final concentration of the powder was 1.6 millimolar (equivalent to 0.1 wt. %). […] A score of “10” was assigned to the most malodorous jar and a score of “1” was assigned to the least malodorous jar.

[2] = Example 3 urine odor panel ranking; set-up: species or system Human
Description: (§1) The effectiveness of various quinone compounds in reducing urine odor was compared. […] Human female urine was initially collected and pooled by a nurse on staff at Kimberly-Clark Corporation. The pooled urine was added to mason jars in 50-milliliter aliquots using an automated pipette aid. […] The mason jars were placed in an incubator overnight at 37° C.
(§2) In addition to ranking the jars from least to most malodorous (on a scale from 1 to 7, with 7 being the most malodors), panelists were also asked to judge whether there were secondary (non-urine) odors present and, if so, the extent that the secondary odors were unpleasant (on a scale from 1 to 5, with 5 being extremely unpleasant).
In this assessment, panelists were given instructions to rank the least malodorous jar as “1” and the most malodorous jar as “10,” remaining free to rank the other jars between 2-9.

[3] = Example 3 secondary (non-urine) odor ranking; set-up: species or system Human; details: individual panelist scores, scale 1 to 5, 5 extremely unpleasant
Description: as §1, §2

[4] = Redox potential (redox potentiometry); format: physicochemical
Source text: The ability of quinone compounds to accept electrons from another substance (i.e., be reduced) may be quantified using a technique known as redox potentiometry. Redox potentiometry is a technique that measures (in volts) the affinity of a substance for electrons—its electronegativity—compared with hydrogen (which is set at 0). Substances more strongly electronegative than (i.e., capable of oxidizing) hydrogen have positive redox potentials. Substances less electronegative than (i.e., capable of reducing) hydrogen have negative redox potentials. The greater the difference between the redox potentials of two substances (ΔE), the greater the vigor with which electrons will flow spontaneously from the less positive to the more positive (more electronegative) substance. As is well known in the art, redox potential may be measured using any of a variety of commercially available meters, such as an Oxidation Reduction Potential (ORP) tester commercially available from Hanna Instruments, Inc. of Woonsocket, R. I. The redox potential of the quinone compounds may, for instance, be less than about −50 millivolts (mV), in some embodiments less than about −150 mV, in some embodiments less than about −300 mV, and in some embodiments, less than about −500 mV. Although not always the case, the redox potential may vary based on the number and location of functional groups, such as sulfonic acid, on the quinone structure. For example, 2-sulfonic acid anthraquinone has a redox potential of −380 mV; 2,6-disulfonic acid anthraquinone has a redox potential of −325 mV; and 2,7-disulfonic acid anthraquinone has a redox potential of −313 mV. Likewise, 2-sulfonic acid naphthaquinone has a redox potential of −60 mV. The use of other functional groups may also have an affect on the ultimate redox potential of the compound. For example, Acid Blue 25, which also contains amino- and aramid functional groups, has a redox potential of −605 mV.

[5] = Example 7 urine odor panel ranking (16 millimolar); set-up: species or system Human; details: Example 7 Group C; 16 millimolar in urine; 1 least, 10 most urine malodor
Summary of the method: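 Quinone powders were added at a final 16 millimolar (1 wt. %) to pooled human female urine, and jars were incubated overnight at 37° C. Jars were compared with an untreated urine control jar. The next day panelists scored malodor from 1 (least) to 10 (most).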

[6] = Solubility of powder in urine; details: Example 7; 16 mM in 50 milliliters of urine
[7] = Example 3 first grouping, 8 millimolar in urine, scale 1 to 7, 7 most malodorous
[8] = Example 3 top performers of both groupings, after 24 hours, 1 least, 10 most malodorous

Cc1ccc(Nc2cccc3c2C(=O)c2cccc(Nc4ccc(C)cc4S(=O)(=O)[O-])c2C3=O)c(S(=O)(=O)[O-])c1.[Na+].[Na+]
reducing odor (in words) [1]: did not perform as well in reducing odor as D&C Green No. 5
Average Urine Odor Ranking, Avg. Score [2, 7]: 5.8
Urine Odor Ranking 4 (number of panelists) [2, 7]: 1
Urine Odor Ranking 6 (number of panelists) [2, 7]: 3
Urine Odor Ranking 7 (number of panelists) [2, 7]: 1
Secondary Odor Ranking ([3]; Example 3 first grouping): 1

O=C1c2ccc(S(=O)(=O)O)cc2C(=O)c2ccc(S(=O)(=O)O)cc21 [2,6-disulfonic acid anthraquinone]
redox potential [4]: −325 mV

O=C1c2ccc(S(=O)(=O)O)cc2C(=O)c2cc(S(=O)(=O)O)ccc21 [2,7-disulfonic acid anthraquinone]
redox potential [4]: −313 mV

O=C1c2ccccc2C(=O)c2cc(S(=O)(=O)O)ccc21 [2-sulfonic acid anthraquinone]
redox potential [4]: −380 mV

O=C1C=C(S(=O)(=O)O)C(=O)c2ccccc21 [2-sulfonic acid naphthaquinone]
redox potential [4]: −60 mV

Nc1c(S(=O)(=O)[O-])cc(Nc2ccccc2)c2c1C(=O)c1ccccc1C2=O.[Na+] [Acid Blue 25]
redox potential [4]: −605 mV
urine odor reduction (in words) ([2]; Example 3 first grouping): functioned effectively to reduce odor
Average Urine Odor Ranking, Avg. Score [2, 7]: 3.0
Urine Odor Ranking 1 (number of panelists) [2, 7]: 1
Urine Odor Ranking 2 (number of panelists) [2, 7]: 1
Urine Odor Ranking 3 (number of panelists) [2, 7]: 1
Urine Odor Ranking 4 (number of panelists) [2, 7]: 1
Urine Odor Ranking 5 (number of panelists) [2, 7]: 1
Urine Odor Ranking 4 (number of panelists) [2, 8]: 1
Urine Odor Ranking 7 (number of panelists) [2, 8]: 1
Urine Odor Ranking 9 (number of panelists) [2, 8]: 2
Urine Odor Ranking 10 (number of panelists) [2, 8]: 1
Average Urine Odor Ranking, Avg. Score ([2]; Example 3 top performers, after 24 hours, 1 least, 10 most malodorous): 6.8
Average Urine Odor Ranking (with statistical corrections), Avg. Score ([2]; Example 3 top performers, after 24 hours, ignoring statistical anomalies): 8.8
Secondary Odor Ranking ([3]; Example 3 first grouping): 2
Secondary Odor Ranking ([3]; Example 3 top performers, after 24 hours): 4
Average Rankings (Group C), Avg. Score [5]: 2.4
Urine Odor Ranking 1 (number of panelists) [5]: 3
Urine Odor Ranking 4 (number of panelists) [5]: 1
Urine Odor Ranking 5 (number of panelists) [5]: 1
Soluble? [6]: Mostly
